Laboratory results as given in patent US5731323A, “Quinuclidine derivatives as squalene synthase inhibitors” (Zeneca Limited, priority 1992, dated 1998).

Assays:
[1] = tested on: de novo hepatic cholesterol synthesis; assay: Acute rat cholesterol synthesis assay (de novo hepatic cholesterol synthesis from exogenously administered 14C-acetate); assay type: in vivo; details: female rats, dose and route not stated
Description: (b) Acute rat cholesterol synthesis assay.
This is an acute in vivo test in the rat to measure de novo hepatic cholesterol synthesis from exogenously administered ^14 C-acetate.
Female rats (35-55 g) are housed in reverse lighting conditions (red light from 0200 h-1400 h) for a period of about 2 weeks prior to test. Animals are allowed free access to chow and drinking water throughout this period. At test, animals should weigh 125-150 g.
Test compounds may be administered by oral gavage, dissolved or suspended in 0.5% polysorbate, or by ip or iv dosing. Control animals receive vehicle alone. After 1 hour the rats are injected ip with 25 μCi [2-^14 C]-acetate (NEN DUPONT. specific activity, 45-60 mCi/mmol NEC-085H, or AMERSHAM specific activity, 50-60 mCi/mmol CFA 14) in a volume of 0.25 ml saline (100 μCi/ml). After a further hour, rats are terminally anaesthetised with halothane and a blood sample obtained from the abdominal vena cava.
1 ml of plasma is lyophilised and then saponified in 2 ml ethanolic KOH (1 part 33% KOH, 9 parts ethanol) at 75° C. for 2 hours. After addition of an equal quantity of water, non-saponifiable lipids are extracted with two 5 ml volumes of hexane. The hexane extracts are evaporated to dryness and the residues dissolved in ethanol to determine cholesterol specific radioactivity. ED50 values can be determined in the standard way.

Squalene synthase = assay: Inhibition of squalene synthase (squalene formation from tritiated farnesyl pyrophosphate, rat liver microsomal protein); assay type: biochemical; details: 2.5 μM, substrate 20 μM, 15 minutes, 37° C.
Description: (a) Inhibition of Squalene synthase
In this test, the ability of a compound to prevent the formation of squalene from a radioactive substrate (tritiated farnesyl pyrophosphate) is assessed.
The test compound is incubated at a concentration of 25 micromolar in 200 μl of a buffered solution containing potassium phosphate (50 mM), MgCl2 (4.95 mM), KF (9.9 mM), NADPH (0.9 mM) and rat liver microsomal protein (20 μg). Rat liver microsomes are prepared by the method described in published European Patent Application No. 324,421 and stored in liquid nitrogen prior to assay. Assay vials are kept at 37° C. throughout the incubation.
The reaction is started with the addition of the substrate (1-[^3 H]-farnesyl pyrophosphate), final concentration 20 μM, and stopped after 15 minutes reaction time with the addition of 50 μl of 4% KOH. The reaction products are separated from unreacted substrate after application to a C-18 octadecyl 1 ccBond column (Analytichem Int product No. 617101). An aqueous fraction is eluted with 250 μl of 0.1M KOH. Squalene is then eluted with 1.0 ml 10% ethylacetate in hexane and radioactivity determined. The difference in radioactivity in the presence and absence of the test compound is used to determine the level of inhibition. […] The IC50 can then be determined from a plot of percentage inhibition against concentration of test compound.

CCCCOc1ccc(C#CC2(O)CN3CCC2CC3)cn1 (centres unmarked) [Example 1, 3-[2-(6-butoxy-3-pyridyl)ethynyl]quinuclidin-3-ol]
decrease in the rate of cholesterol biosynthesis [1]: 71% | inhibition (squalene synthase) (Squalene synthase): about 99%
